In patent publication US7812037B2, “Dual antiplatelet/anticoagulant pyridoxine analogs” (Medicure International, Inc., priority 2004, dated 2010):

Columns and labels:
[1] = test system: platelets (platelet rich plasma); assay: Inhibition of platelet aggregation, ADP as agonist; format: cell-based; conditions: ADP 4 μM, human PRP, read-out: % Reduction in Aggregation ADP (4 μM); for inhibition at 30 µM: compound 30 μM
Method: (§1) Platelet rich plasma (PRP) was obtained by drawing whole blood from normal human donors (not on any medication) into sodium citrate tubes (3.2%), and centrifuging at 160×g for about 10 minutes. Platelet poor plasma (PPP) was obtained by centrifuging the remainder of the sample after the platelets were removed at 800×g for about 10 minutes. The PRP was adjusted to a count of 280×10^9/L using a mixture of PRP and PPP. The platelets (200 μL) were incubated with the test compounds (25 μL) adjusted to various concentrations (5, 10, 20, 30, 50, and 100 μM) for about 30 minutes at room temperature (approximate final platelet count in the incubation mixture of 250×10^9/L). The samples were incubated for about 3 minutes at about 37° C., and then transferred to the mixing wells of a Chrono-log 4 channel aggregometer (Chrono-log Corp., Havertown, Pa.). After baselines were established, agonist (25 μL of 40 μM ADP (Sigma, St. Louis, Mo.) or 25 μL of 50 μg/mL and 10 μg/mL collagen (Helena Laboratories, Beaumont, Tex.) or 25 μL of 120 μM thrombin receptor activating peptide (TRAP) (Sigma)) was then added. Aggregation was monitored for 5 minutes at 37° C. with stirring (1000 rpm). The amplitude and slope of each tracing were calculated to determine the amount of aggregation. Control samples were performed using only solvent. The % reduction in aggregation was calculated for each sample compared to the proper solvent control.

[2] = test system: platelets (platelet rich plasma); assay: Inhibition of platelet aggregation, collagen as agonist; format: cell-based; conditions: human PRP; for inhibition at 50 µM: compound 50 μM; for inhibition at 30 µM: compound 30 μM; for inhibition at 100 µM: compound 100 μM
Method: as §1

[3] = test system: platelets (platelet rich plasma); assay: Inhibition of platelet aggregation, thrombin receptor activating peptide (TRAP) as agonist; format: cell-based; conditions: TRAP 12 μM, human PRP, read-out: % Reduction in Aggregation TRAP (12 μM); for inhibition at 30 µM: compound 30 μM
Method: as §1

Human Thrombin = target: T1, Human Thrombin (Homo sapiens, UniProt P00734); assay: Determination of Anti-Thrombin (Factor IIa) Activity; format: biochemical; conditions: competitive inhibition; substrate Pefachrome Thr; pH 8.3
T1 construct: Determination of Anti-Thrombin (Factor IIa) Activity; purchased Calbiochem
Method: The test compounds (40 μL) adjusted to various concentrations (0.25 to 100 μM) were incubated with Human Thrombin (Calbiochem) enzyme (5 nM) in 31 mM Tris buffer (pH 8.3) containing 81 mM sodium chloride and 0.63% bovine serum albumin (fraction V)(80 μL) at room temperature for about 30 minutes. 80 μL of Pefachrome® Thr (Pentapharm) was adjusted to various concentrations, from 62.5 μM to 1.25 mM. The activity was measured at about 37° C. by monitoring absorbance at 405 nm for about 15 minutes using a FLUOstar OPTIMA™. Control sample was the solvent alone. Each test compound was analyzed twice using 4 concentrations of compound plus control (in duplicate) with 5 concentrations of substrate (50, 100, 200, 300 and 500 μM). The specific activity (ΔA405/min/nM enzyme) was determined for each data point. The Ki for competitive inhibition was then determined for each test compound using the Enzyme Kinetics module of Sigmaplot 8.0 (SPSS).

Human FXa = target: T2, Human FXa (Homo sapiens, UniProt P00742); assay: Determination of Anti-Factor Xa (Fxa) Activity; format: biochemical; conditions: competitive inhibition; substrate Pefachrome Xa; pH 7.5
T2 construct: Determination of Anti-Factor Xa (Fxa) Activity; purchased Calbiochem
T2 sequence (P00742 235-488 limits assumed): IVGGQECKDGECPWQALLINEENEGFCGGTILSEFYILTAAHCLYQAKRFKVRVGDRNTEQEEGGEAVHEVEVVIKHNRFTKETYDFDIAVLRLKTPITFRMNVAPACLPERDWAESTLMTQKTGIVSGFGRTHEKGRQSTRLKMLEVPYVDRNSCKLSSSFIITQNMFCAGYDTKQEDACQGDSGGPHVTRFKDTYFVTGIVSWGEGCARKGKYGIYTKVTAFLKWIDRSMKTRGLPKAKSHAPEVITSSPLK
T2 sequence (P00742 41-179 partner limits assumed): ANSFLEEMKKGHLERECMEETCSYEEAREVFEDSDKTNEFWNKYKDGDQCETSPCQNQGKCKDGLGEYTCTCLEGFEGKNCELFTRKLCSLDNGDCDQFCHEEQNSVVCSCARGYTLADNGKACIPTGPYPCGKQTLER
Method: The test compounds (40 μL) adjusted to various concentrations (0.25 to 100 μM) were incubated with 5 nM Human FXa (Calbiochem, San Diego, Calif.) enzyme in 125 mM Tris [Tris(hydroxymethyl)aminomethane] buffer (pH 7.5) containing 375 mM sodium chloride and 0.25% polyethylene glycol (MW 8000) (80 μL) at room temperature for about 30 minutes. 80 μL of synthetic substrate Pefachrome® Xa (Pentapharm, Basel, Switzerland), adjusted to various concentrations from 125 μM to 1.25 mM, was added. The activity was measured at 37° C. by monitoring absorbance at 405 nm for 15 minutes using a FLUOstar OPTIMA™ (BMG Labtech GmbH, Offenburg, Germany) microplate reader. Control sample was the solvent alone. Each test compound was analyzed twice using 4 concentrations of compound plus control (in duplicate) with 5 concentrations of substrate (50, 100, 200, 300 and 500 μM). The specific activity (ΔA405/min/nM enzyme) was determined for each data point. The Ki for competitive inhibition was then determined for each test compound using the Enzyme Kinetics module of Sigmaplot 8.0 (SPSS Inc., Chicago, Ill.).

[4] = collagen 1 μg/mL, read-out: % Reduction in Aggregation Collagen (1 μg/mL)
[5] = collagen 5 μg/mL, read-out: % Reduction in Aggregation Collagen (5 μg/mL)

Compound	Ki (Human Thrombin) [nM]	Ki (Human FXa) [nM]	also measured
Cc1ncc(CO)c(CNc2ccc(C(=N)N)cc2)c1OCc1ccc(C(=N)N)cc1 [Compound 3, 4-{[3-(4-Carbamimidoyl-benzyloxy)-5-hydroxymethyl-2-methyl-pyridin-4-ylmethyl]-amino}-benzamidine]			inhibition at 50 µM ([1]; compound 50 μM): 27%; inhibition at 50 µM [2, 4]: 20%; inhibition at 50 µM [2, 5]: 0%; inhibition at 50 µM ([3]; compound 50 μM): 81%
Cc1ncc(CNc2ccc(-c3ccc(C(=N)N)cc3)cc2)c(CO)c1OCc1ccc(C(=N)N)cc1 [Compound 6, 4′-{[5-(4-Carbamimidoyl-benzyloxy)-4-hydroxymethyl-6-methyl-pyridin-3-ylmethyl]-amino}-biphenyl-4-carboxamidine]	10300	2300	inhibition at 30 µM [1]: 89%; inhibition at 30 µM [2, 4]: 100%; inhibition at 30 µM [2, 5]: 44%; inhibition at 30 µM [3]: 86%
Cc1ncc(COc2ccc(C(=N)N)cc2)c(CO)c1OCc1ccc(C(=N)N)cc1 [Compound 15, 4-(5-(4-Carbamimidoyl-benzyloxy)-4-hydroxymethyl-6-methyl-pyridin-3-ylmethoxy)-benzamidine]	1650	11000	
Cc1ncc(COc2ccc(C(=N)N)cc2)c(C(F)F)c1OCc1ccc(C(=N)N)cc1 [Compound 21, 4-[4,4-Difluoromethyl-6-methyl-5-(4-carbamimidoyl-benzyloxy)-pyridin-3-ylmethoxy]-benzamidine]	510	19000	
Cc1ncc(CNc2ccc(-c3ccc(C(=N)N)cc3)cc2)c(CNCCCCCC(=O)O)c1O [Compound 46, 6-({5-[(4′-Carbamimidoyl-biphenyl-4-ylamino)-methyl]-3-hydroxy-2-methyl-pyridin-4-ylmethyl}-amino)-hexanoic acid]			inhibition at 100 µM ([1]; compound 100 μM): 46%; inhibition at 100 µM [2, 4]: 35%; inhibition at 100 µM [2, 5]: 19%; inhibition at 100 µM ([3]; compound 100 μM): 29%
Cc1ncc(CNc2ccc(C(=N)N)cc2)c(CNCCCCCC(=O)O)c1OCc1ccc(C(=N)N)cc1 [Compound 54, 6-({3-(4-Carbamimidoyl-benzyloxy)-5-[(4-carbamimidoyl-phenylamino)-methyl]-2-methyl-pyridin-4-ylmethyl}-amino)-hexanoic acid]			inhibition at 30 µM [1]: 23%; inhibition at 30 µM [2, 4]: 15%; inhibition at 30 µM [2, 5]: 13%; inhibition at 30 µM [3]: 53%
Cc1ncc(CNc2ccc(-c3ccc(C(=N)N)cc3)cc2F)c(CO)c1OCc1ccc(C(=N)N)cc1 [Compound 63, 4′-{[5-(4-Carbamimidoyl-benzyloxy)-4-hydroxymethyl-6-methyl-pyridin-3-ylmethyl]-amino}-3′-fluoro-biphenyl-4-carboxamidine]			inhibition at 30 µM [1]: 95%; inhibition at 30 µM [2, 4]: 95%; inhibition at 30 µM [2, 5]: 41%; inhibition at 30 µM [3]: 94%
Cc1ncc(COc2ccc(C(=N)N)cc2)c(C)c1OCc1cccc(C(=N)N)c1 [Compound 70, 4-[4,6-Dimethyl-5-(3-carbamimidoyl-benzyloxyl)-pyridin-3-ylmethoxy]-benzamidine]	700	9000	
Cc1ncc(CNC(=O)c2ccc(C(=N)N)cc2)c(CO)c1OCc1ccc(C(=N)N)cc1 [Compound 73, 4-Carbamimidoyl-N-[5-(4-carbamimidoyl-benzyloxy)-4-hydroxymethyl-6-methyl-pyridin-3-ylmethyl]-benzamide]	720	3500	
CCc1c(CNc2ccc(C(=N)N)cc2)cnc(C)c1OCc1cccc(C(=N)N)c1 [Compound 103, 3-{5-[(4-Amidino-phenylamino)-methyl]-4-ethyl-2-methyl-pyridin-3-yloxymethyl}-benzamidine]	47	961	
Cc1ncc(CNc2ccc(C(=N)N)cc2)c(CF)c1OCc1cccc(C(=N)N)c1 [Compound 108, 4-{[4-Fluoromethyl-5-(3-amidine-benzyloxy)-6-methyl-pyridin-3-ylmethyl]-amino}-benzamidine]		378	
Cc1ncc(CNc2ccc(C(=N)N)cc2)cc1OCc1cccc(C(=N)N)c1 [Compound 136, 4-((5-(3-amidinebenzyloxy)-6-methylpyridin-3-yl)methylamino)benzamidine]	333	503	
Cc1c(CNc2ccc(C(=N)N)cc2)cnc(CO)c1OCc1cccc(C(=N)N)c1 [Compound 138, 4-{[5-(3-Amidine-benzyloxy)-6-hydroxymethyl-4-methyl-pyridin-3-ylmethyl]-amino}-benzamidine]	39	412	
Cc1c(CNc2ccc(C(=N)N)cc2)cnc(CF)c1OCc1cccc(C(=N)N)c1 [Compound 140, 4-{[5-(3-Amidine-benzyloxy)-6-fluoro-methyl-4-methyl-pyridin-3-ylmethyl]-amino}-benzamidine]	17	423	
Cc1c(CNc2ccc(C(=N)N)cc2)cnc(C=O)c1OCc1cccc(C(=N)N)c1 [Compound 142, 4-{[5-(3-Amidine-benzyloxy)-6-formyl-4-methyl-pyridin-3-ylmethyl]-amino}-benzamidine]	186	589	
N=C(N)c1ccc(NCc2cnc(CF)c(OCc3cccc(C(=N)N)c3)c2CF)cc1 [Compound 148, 4-{[4,6-Bis-fluoromethyl-5-(3-amidine-benzyloxy)-pyridin-3-ylmethyl]-amino}-benzamidine]	9	473	
N=C(N)c1ccc(COc2c(CF)ncc(CNc3ccc(C(=N)N)cc3)c2CF)cc1 [Compound 153, 4-{5-[(4-Carbamimidoyl-phenylamino)-methyl]-2,4-bis-fluoromethyl-pyridin-3-yloxymethyl}-benzamidine]	12	665	
Cc1nc(C2CC2)c(CNc2ccc(C(=N)N)cc2)c(CO)c1OCc1cccc(C(=N)N)c1 [Compound 172, 3-{5-[(4-Carbamimidoyl-phenylamino)-methyl]-6-cyclopropyl-4-hydroxymethyl-2-methyl-pyridin-3-yloxymethyl}-benzamidine]	41	380	
Cc1nc(C2CC2)c(CNc2ccc(C(=N)N)cc2)c(CO)c1OCc1ccc(C(=N)N)cc1 [Compound 174, 4-{5-[(4-Carbamimidoyl-phenylamino)-methyl]-6-cyclopropyl-4-hydroxymethyl-2-methyl-pyridin-3-yloxymethyl}-benzamidine]	37	1080	
